Measured values as given in ChEMBL document CHEMBL5226341, “Discovery of a Potent FLT3 Inhibitor (LT-850-166) with the Capacity of Overcoming a Variety of FLT3 Mutations” (J Med Chem, 2021).
pIC50: −log10 of the molar value. Calls of active or inactive are those of the source. The calls are words filed in the database; no cut-off is given here.

What was measured:
[1] = MRT (0 to t) in Sprague-Dawley rat at 10 mg/kg, po measured for 24 hrs by LC-MS/MS analysis; type: ADME, organism-based; conditions: in vivo
[2] = system: MV4-11; assay: Induction of apoptosis in human MV4-11 cells assessed as viable cells at 10 nM incubated for 24 hrs by AnnexinV-FITC/PI staining based flow cytometry (reference value: 92.3%); type: functional; conditions: read-out: Activity
[3] = Toxicity in BALB/c mouse xenografted with human MV4-11 cells assessed as white blood cell count at 15 mg/kg, iv for 21 days; type: organism-based; conditions: in vivo, 504 h, time 21 day
[4] = system: BaF3; assay: Antiproliferative activity against mouse BaF3 cells harboring FLT3-ITD-Y842H mutant assessed as reduction in cell viability measured after 72 hrs by CellTiterGlo luminescent assay; type: functional, cell-based; conditions: BaF3, 72 h
[5] = Toxicity in BALB/c mouse xenografted with human MV4-11 cells assessed as morphological changes in kidney at 15 mg/kg, iv for 21 days by H and E staining based analysis; type: organism-based; conditions: in vivo, 504 h, time 21 day
[6] = molecular target: Receptor-type tyrosine-protein kinase FLT3 (Homo sapiens) (UniProt P36888); assay: Inhibition of FLT3 in human MV4-11 cells assessed as inhibition of STAT5 phosphorylation at Tyr694 residue at 10 nM incubated for 4 hrs by western blot analysis; type: cell-based
[7] = molecular target: Receptor-type tyrosine-protein kinase FLT3 (Homo sapiens) (UniProt P36888); assay: Inhibition of FLT3 in human MV4-11 cells assessed as inhibition of STAT5 phosphorylation at Tyr694 residue incubated for 4 hrs by western blot analysis; type: cell-based; conditions: dose 0.1-100 nM
[8] = Clearance in Sprague-Dawley rat at 1 mg/kg, iv measured for 24 hrs by LC-MS/MS analysis; type: ADME, organism-based; conditions: in vivo
[9] = Induction of cell cycle arrest in mouse HCD-57 cells at 100 nM incubated for 24 hrs by PI staining based flow cytometry; type: toxicity; conditions: hcd-57, 24 h, 0.1 µM
[10] = Antiproliferative activity against mouse BaF3 cells assessed as reduction in cell viability measured after 72 hrs by CellTiterGlo luminescent assay; type: toxicity, cell-based
[11] = system: MV4-11; assay: Induction of cell cycle arrest in human MV4-11 cells assessed as proportion of cells at G1 phase at 100 nM incubated for 24 hrs by PI staining based flow cytometry (reference value: 56%); type: functional
[12] = Cmax in Sprague-Dawley rat at 10 mg/kg, po measured for 24 hrs by LC-MS/MS analysis; type: ADME, organism-based; design: time 24 hrs, dose 10 mg/kg, route po; conditions: in vivo
[13] = system: U-937; assay: Antiproliferative activity against human U-937 cells assessed as reduction in cell viability measured after 72 hrs by CellTiterGlo luminescent assay; type: functional, cell-based; conditions: U-937, 72 h
[14] = system: BaF3; assay: cells; conditions: Mus musculus, BaF3, 72 h
Description: Antiproliferative activity against mouse BaF3 cells harboring FLT3-ITD-D835V mutant assessed as reduction in cell viability measured after 72 hrs by CellTiterGlo luminescent assay

[15] = molecular target: Receptor-type tyrosine-protein kinase FLT3 (Homo sapiens) (UniProt P36888); assay: Inhibition of FLT3 in human MV4-11 cells assessed as inhibition of FLT3 phosphorylation at Tyr589/591 residue at 10 nM incubated for 4 hrs by western blot analysis; type: cell-based
[16] = system: MV4-11; assay: Induction of apoptosis in human MV4-11 cells assessed as necrotic cells at 10 nM incubated for 24 hrs by AnnexinV-FITC/PI staining based flow cytometry (reference value: 0.45%); type: functional
[17] = system: Receptor-type tyrosine-protein kinase FLT3 (Homo sapiens), P36888 [UNDEFINED MUTATION]; type: cell-based; conditions: BaF3, dose 0.1-100 nM, time 4.0 hrs
[18] = system: HCD-57; assay: Antiproliferative activity against mouse HCD-57 cells harboring FLT3-ITD mutant assessed as reduction in cell viability measured after 72 hrs by CellTiterGlo luminescent assay; type: functional, cell-based
[19] = system: MV4-11; assay: Induction of apoptosis in human MV4-11 cells assessed as viable cells at 100 nM incubated for 24 hrs by AnnexinV-FITC/PI staining based flow cytometry (reference value: 92.3%); type: functional; conditions: read-out: Activity
[20] = molecular target: Receptor-type tyrosine-protein kinase FLT3 (Homo sapiens) (UniProt P36888); assay: Inhibition of FLT3 in human MV4-11 cells assessed as inhibition of ERK phosphorylation at Thr202/Tyr204 residue at 10 nM incubated for 4 hrs by western blot analysis; type: cell-based
[21] = system: BaF3; type: functional, cell-based; conditions: Mus musculus, BaF3, 72 h
[22] = system: Receptor-type tyrosine-protein kinase FLT3 (Homo sapiens), P36888 [UNDEFINED MUTATION]; assay: Inhibition of FLT3-ITD-F691L mutant (unknown origin) transformed in mouse BaF3 cells assessed as inhibition of FLT3 phosphorylation at Tyr589/591 residue incubated for 4 hrs by western blot analysis; type: cell-based; conditions: dose 0.1-100 nM
[23] = AUC (0 to t) in Sprague-Dawley rat at 10 mg/kg, po measured for 24 hrs by LC-MS/MS analysis; type: ADME, organism-based; design: time 24 hrs, dose 10 mg/kg, route po; conditions: in vivo
[24] = system: MV4-11; assay: Induction of apoptosis in human MV4-11 cells assessed as late apoptotic cells at 10 nM incubated for 24 hrs by AnnexinV-FITC/PI staining based flow cytometry (reference value: 4.2%); type: functional
[25] = system: MV4-11; assay: Induction of apoptosis in human MV4-11 cells assessed as necrotic cells at 100 nM incubated for 24 hrs by AnnexinV-FITC/PI staining based flow cytometry (reference value: 0.45%); type: functional
[26] = Initial drug concentration in Sprague-Dawley at 1 mg/kg, iv by LC-MS/MS analysis; type: ADME, organism-based; conditions: rat, in vivo
[27] = system: MOLM-13; assay: Antiproliferative activity against human MOLM-13 cells assessed as reduction in cell viability measured after 72 hrs by CellTiterGlo luminescent assay; type: functional, cell-based; conditions: MOLM-13, 72 h
[28] = Toxicity in BALB/c mouse xenografted with human MV4-11 cells assessed as platelet count at 15 mg/kg, iv for 21 days; type: organism-based; conditions: in vivo, 504 h, time 21 day
[29] = AUC (0 to t) in Sprague-Dawley rat at 1 mg/kg, iv measured for 24 hrs by LC-MS/MS analysis; type: ADME, organism-based; design: dose 1 mg/kg, time 24 hrs, route iv; conditions: in vivo
[30] = Toxicity in ICR mouse assessed as change in body weight at 100 mg/kg, iv administered as single dose and measured for 14 days; type: organism-based; conditions: in vivo, 336 h, time 14 day
[31] = system: MV4-11; assay: Induction of apoptosis in human MV4-11 cells assessed as early apoptotic cells at 50 nM incubated for 24 hrs by AnnexinV-FITC/PI staining based flow cytometry (reference value: 3.09%); type: functional
[32] = system: NB-4; assay: Antiproliferative activity against human NB-4 cells assessed as reduction in cell viability measured after 72 hrs by CellTiterGlo luminescent assay; type: functional, cell-based; conditions: NB-4, 72 h
[33] = system: MV4-11; assay: Induction of cell cycle arrest in human MV4-11 cells assessed as proportion of cells at G1 phase at 10 nM incubated for 24 hrs by PI staining based flow cytometry (reference value: 56%); type: functional
[34] = system: BaF3; assay: Antiproliferative activity against mouse BaF3 cells harboring FLT3-ITD-F691L mutant assessed as residual cell viability at 10 nM incubated for 72 hrs by CellTiterGlo luminescent assay; type: functional
[35] = Toxicity in BALB/c mouse xenografted with human MV4-11 cells assessed as morphological changes in spleen at 15 mg/kg, iv for 21 days by H and E staining based analysis; type: organism-based; conditions: in vivo, 504 h, time 21 day
[36] = system: MV4-11; assay: Antitumor activity against human MV4-11 cells xenografted in BALB/c mouse assessed as inhibition rate of tumor weight at 15 mg/kg, iv QD for 21 days by vernier caliper analysis; type: functional; conditions: MV4-11, 504 h, time 21 day
[37] = system: MV4-11; assay: Antitumor activity against human MV4-11 cells xenografted in BALB/c mouse assessed as inhibition rate of tumor weight at 15 mg/kg, iv BID for 21 days by vernier caliper analysis; type: functional; conditions: MV4-11, 504 h, time 21 day

Receptor-type tyrosine-protein kinase FLT3 (Homo sapiens), sequence (P36888 whole entry): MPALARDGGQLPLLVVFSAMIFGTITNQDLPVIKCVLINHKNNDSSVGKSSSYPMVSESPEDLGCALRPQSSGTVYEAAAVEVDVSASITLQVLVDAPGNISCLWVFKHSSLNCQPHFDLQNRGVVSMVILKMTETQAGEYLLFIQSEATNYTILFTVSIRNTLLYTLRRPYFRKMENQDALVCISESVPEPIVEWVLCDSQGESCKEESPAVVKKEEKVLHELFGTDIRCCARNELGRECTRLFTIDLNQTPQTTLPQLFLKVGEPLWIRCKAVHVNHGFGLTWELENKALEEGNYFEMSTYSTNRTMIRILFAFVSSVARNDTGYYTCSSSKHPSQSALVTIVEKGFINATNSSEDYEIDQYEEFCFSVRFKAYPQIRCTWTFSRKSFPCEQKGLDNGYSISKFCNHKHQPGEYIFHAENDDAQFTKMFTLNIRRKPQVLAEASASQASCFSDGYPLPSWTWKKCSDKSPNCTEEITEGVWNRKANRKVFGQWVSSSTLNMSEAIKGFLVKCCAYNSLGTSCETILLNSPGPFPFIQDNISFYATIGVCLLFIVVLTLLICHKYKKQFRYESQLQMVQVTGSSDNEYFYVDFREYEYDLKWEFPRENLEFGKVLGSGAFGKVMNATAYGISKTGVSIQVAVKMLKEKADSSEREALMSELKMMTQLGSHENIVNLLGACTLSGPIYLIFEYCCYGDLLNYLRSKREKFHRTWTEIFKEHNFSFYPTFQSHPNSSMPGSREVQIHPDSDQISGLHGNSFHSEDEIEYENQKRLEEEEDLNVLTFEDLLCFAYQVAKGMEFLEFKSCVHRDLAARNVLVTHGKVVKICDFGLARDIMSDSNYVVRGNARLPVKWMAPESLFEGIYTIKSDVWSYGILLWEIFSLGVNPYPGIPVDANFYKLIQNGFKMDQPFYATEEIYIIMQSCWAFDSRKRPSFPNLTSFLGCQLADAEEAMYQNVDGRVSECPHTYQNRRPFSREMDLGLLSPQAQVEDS
Receptor-type tyrosine-protein kinase FLT3 (Homo sapiens), P36888 [UNDEFINED MUTATION], sequence (P36888 whole entry, looked up, stated change not applied): as the sequence (P36888 whole entry) above

CCN1CCN(c2ccc(C(=O)Nc3cc(-c4ccc5ncn(Cc6c(Cl)cccc6Cl)c5c4)[nH]n3)cc2)CC1
MRT last at 24 h [1]: 3.63 h
viability at 0.01 µM [2]: 67.9%
Activity [3]: Non-Toxic
pIC50 [4]: > 8.82
Activity [5]: Non-Toxic
inhibition [6]: 100%
inhibition [7]: Dose-Dependent Effect
clearance [8]: 40.2 mL/min/kg
Activity [9]: Non-Toxic
IC50 at 72 h [10]: 4100 nM
Activity [11]: 90.3%
Cmax [12]: 9.31 ng/mL
pIC50 [13]: < 5.70
pIC50 [14]: > 8.82
inhibition [15]: 100%
Activity [16]: 1.3%
inhibition [17]: Dose-Dependent Effect
Activity [18]: Active
viability at 0.1 µM [19]: 59.7%
inhibition [20]: 100%
pIC50 [21]: > 8.82
inhibition [22]: Dose-Dependent Effect
AUC(0-t) at 24 h [23]: 50.9 ng·h/mL
Activity [24]: 20.5%
Activity [25]: 0.61%
C0 [26]: 368 ng/mL
pIC50 [27]: 8.01
Activity [28]: Non-Toxic
AUC(0-t) at 24 h [29]: 391 ng·h/mL
Activity [30]: Non-Toxic
Activity [31]: 11.3%
pIC50 [32]: < 5.30
Activity [33]: 88.7%
Activity [34]: 43.16%
Activity [35]: Non-Toxic
inhibition in vivo at 15 mg/kg [36]: 82.7%
inhibition in vivo at 15 mg/kg [37]: 85.2%
